Data taken from US20030176401A1, “Sodium salt of an azo derivative of 5-aminosalicylic acid” (priority 2000, published 2003).

Assays:
[1] = Azoreduction after oral administration: distribution of product and UR-12715 in faeces, study in rats; assay type: in vivo, Sprague-Dawley rats; conditions: for relative percentage of Product (administered compound) found in faeces: female rats, 50 mg/kg oral, suspension in 0.2% CMC, mean of 3; for azoreduction after oral administration: rats
Procedure: (§1) The level of azoreduction has been studied by determining the distribution of UR-12746 and UR-12715 in faeces after the oral administration of UR-12746 and its sodium salt in rats and monkeys.
For the study in rats, 6 female Sprague-Dawley rats weighing between 169 and 185 g were used. UR-12746 and the sodium salt of UR-12746 (polymorph I) were orally administered to three rats each as a suspension in 0.2% carboxymethylcelulose (CMC), at a dose of 50 mg/kg (100 mg of test compound/10 mL of 0.2% CMC).
The rats were placed in metabolic cages, so that urine and faeces could be separately collected, and faeces were collected during the periods 0-24 h and 24-48 h. The faeces collected in the same period were weighted and crumbled. Water was added (2 mL of water/g of faeces) and the paste obtained was stirred to homogeneity. The total weight of the homogenate was then determined.
An aliquot of this homogenate (about 2 g) was mixed with 4 mL of MeOH, stirred in a Vortex and centrifuged for 10 minutes at 4500 rpm (3000 g). The supernatant was filtered through a 0.45 μm filter, and the concentrations of the administered product and metabolite present in the sample were determined by a HPLC chromatographic method with gradient elution and ultraviolet detection, under the conditions detailed below:
The level of azoreduction was determined from the amounts of product and UR-12715 recovered in faeces. The relative percentage of the amounts corresponding to the product (UR-12746 or sodium salt of UR-12746) and to the metabolite (UR-12715) found in faeces after oral administration are shown in Table 3. Results are given as the mean values.

[2] = Azoreduction after oral administration: distribution of product and UR-12715 in faeces, study in monkeys; assay type: in vivo, Cynomolgus monkeys; conditions: for relative percentage of Product (administered compound) found in faeces: 100 mg/kg p.o. (UR-12746 suspension in 0.2% CMC; sodium salt capsules)
Procedure: as §1
6 Cynomolgus monkeys were used for this study. Each test product was administered to three monkeys, respectively. UR-12746 was administered as a suspension in 0.2% CMC, at a dose of 100 mg/kg p.o. (1000 mg UR-12746/10 mL of 0.2% CMC), whereas the sodium salt of UR-12746 (polymorph I) was administered as individualized capsules for each animal at a dose of 100 mg/kg p.o.
The monkeys were placed in metabolic cages, so that urine and faeces could be separately collected, and faeces corresponding to the periods 0-24 h, 24-48 h and 48-72 h were collected.
The treatment of the faeces and the determination of the amount of administered product and metabolite present in the samples were carried out following the same procedure described above for the study in rats.
As in the rat study, the azoreduction level was determined from the amounts of product and UR-12715 recovered in faeces.

| SMILES | relative percentage of Product (administered compound) found in faeces ([1]; faeces 0-24 h) [%] | relative percentage of Product (administered compound) found in faeces ([1]; faeces 0-48 h) [%] | relative percentage of Product (administered compound) found in faeces ([1]; faeces 24-48 h) [%] | azoreduction after oral administration [1] | relative percentage of Product (administered compound) found in faeces ([2]; faeces 0-24 h) [%] | relative percentage of Product (administered compound) found in faeces ([2]; faeces 0-72 h) [%] | relative percentage of Product (administered compound) found in faeces ([2]; faeces 24-48 h) [%] | relative percentage of Product (administered compound) found in faeces ([2]; faeces 48-72 h) [%] | azoreduction (metabolization in the colon) after oral administration [2] |
| --- | --- | --- | --- | --- | --- | --- | --- | --- | --- |
| Cc1nc2cnccc2n1CC1CCN(C(=O)/C=C(/c2ccccc2)c2ccc(N=Nc3ccc(O)c(C(=O)[O-])c3)cc2)CC1.[Na+] [Sodium salt of UR-12746, sodium salt of (Z)-2-hydroxy-5-[[4-[3-[4-[(2-methyl-1H-imidazo[4,5-c]pyridin-1-yl)methyl]-1-piperidinyl]-3-oxo-1-phenyl-1-propenyl]phenyl]azo]benzoic acid] | 21.1 | 20.8 | 12.1 | around 79% | 12.6 | 9.7 | 6.5 | 5.0 | around 90% |
| Cc1nc2cnccc2n1CC1CCN(C(=O)/C=C(/c2ccccc2)c2ccc(N=Nc3ccc(O)c(C(=O)O)c3)cc2)CC1 [UR-12746, (Z)-2-hydroxy-5-[[4-[3-[4-[(2-methyl-1H-imidazo[4,5-c]pyridin-1-yl)methyl]-1-piperidinyl]-3-oxo-1-phenyl-1-propenyl]phenyl]azo]benzoic acid] | 78.8 | 76.1 | 52.5 | 24% | >99 | >99 | >99 | >99 | no azoreduction |
